From patent publication US11028079B2 (ConverGene LLC, priority 2015, dated 2021)

Molecular target: T1, BRD4 bromodomains (Homo sapiens, UniProt O60885)
T1 construct: fused on or other part: T7 phage capsid protein (phage-display fusion; the phage DNA is read out by qPCR)
Assay: BROMOscan bromodomain competition binding assay (DiscoveRx)
Conditions: Kd from 11 compound concentrations ranging from 0 to 10 μM, read-out: BROMOscan Relative Activity
Outline: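 Compounds in 0.1% DMSO/0.9% MEG competed with a solid-phase acetylated peptide for T7 phage-fused BRD4 bromodomains, with the retained bromodomain measured by qPCR.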

Cc1noc(C)c1-c1ccc2nc(N3CCN(CC(=O)N(C)C)CC3)nc(N3CCOC[C@@H]3c3ccccc3)c2c1 [Example 303, (S)-2-(4-(6-(3,5-dimethylisoxazol-4-yl)-4-(3-phenylmorpholino)quinazolin-2-yl)piperazin-1-yl)-N,N-dimethylacetamide]
Kd: < 0.5 µM

Cc1noc(C)c1-c1ccc2nc(-c3cnn(C(C)(C)CO)c3)nc(N3CCOC[C@@H]3c3ccccc3)c2c1 [Example 304, (S)-2-(4-(6-(3,5-dimethylisoxazol-4-yl)-4-(3-phenylmorpholino)quinazolin-2-yl)-1H-pyrazol-1-yl)-2-methylpropan-1-ol]
Kd: < 0.5 µM

Cc1noc(C)c1-c1ccc2nc(N3CCN(C(=O)CO)CC3)nc(N3CCOC[C@@H]3c3ccccc3)c2c1 [Example 305, (S)-1-(4-(6-(3,5-dimethylisoxazol-4-yl)-4-(3-phenylmorpholino)quinazolin-2-yl)piperazin-1-yl)-2-hydroxyethan-1-one]
Kd: < 0.5 µM

Cc1noc(C)c1-c1ccc2nc(-c3cnn(CCO)c3)nc(N3CCOC[C@@H]3c3ccccc3)c2c1 [Example 306, (S)-2-(4-(6-(3,5-dimethylisoxazol-4-yl)-4-(3-phenylmorpholino)quinazolin-2-yl)-1H-pyrazol-1-yl)ethan-1-ol]
Kd: < 0.5 µM

Cc1noc(C)c1-c1ccc2nc(N3CCN(CC(N)=O)CC3)nc(N3CCOC[C@@H]3c3ccccc3)c2c1 [Example 307, (S)-2-(4-(6-(3,5-dimethylisoxazol-4-yl)-4-(3-phenylmorpholino)quinazolin-2-yl)piperazin-1-yl)acetamide]
Kd: < 0.5 µM

Cc1noc(C)c1-c1ccc2nc(N3CCN(C[C@H](C)O)CC3)nc(N3CCOC[C@@H]3c3ccccc3)c2c1 [Example 308, (S)-1-(4-(6-(3,5-dimethylisoxazol-4-yl)-4-((S)-3-phenylmorpholino)quinazolin-2-yl)piperazin-1-yl)propan-2-ol]
Kd: < 0.5 µM

CC(=O)N1CCN(c2nc(-c3cnn(CC(C)(C)O)c3)nc3ccc(-c4c(C)noc4C)cc23)[C@@H](c2ccccc2)C1 [Example 309, (S)-1-(4-(6-(3,5-dimethylisoxazol-4-yl)-2-(1-(2-hydroxy-2-methylpropyl)-1H-pyrazol-4-yl)quinazolin-4-yl)-3-phenylpiperazin-1-yl)ethan-1-one]
Kd: < 0.5 µM

Cc1noc(C)c1-c1ccc2nc(-c3cnn(CC(C)(C)O)c3)nc(N3CCN(S(C)(=O)=O)C[C@@H]3c3ccccc3)c2c1 [Example 310, (S)-1-(4-(6-(3,5-dimethylisoxazol-4-yl)-4-(4-(methylsulfonyl)-2-phenylpiperazin-1-yl)quinazolin-2-yl)-1H-pyrazol-1-yl)-2-methylpropan-2-ol]
Kd: < 0.5 µM

Cc1noc(C)c1-c1ccc2nc(N3CCc4ncn(C)c4C3)nc(N3CCOC[C@@H]3c3ccccc3)c2c1 [Example 311, (S)-4-(6-(3,5-dimethylisoxazol-4-yl)-2-(3-methyl-3,4,6,7-tetrahydro-5H-imidazo[4,5-c]pyridin-5-yl)quinazolin-4-yl)-3-phenylmorpholine]
Kd: < 0.5 µM

Cc1noc(C)c1-c1ccc2nc(-c3cnn(CC(C)(C)O)c3)nc(N(Cc3cccc(Cl)c3)C3CC3)c2c1 [Example 312, 1-(4-(4-((3-chlorobenzyl)(cyclopropyl)amino)-6-(3,5-dimethylisoxazol-4-yl)quinazolin-2-yl)-1H-pyrazol-1-yl)-2-methylpropan-2-ol]
Kd: < 0.5 µM

Cc1noc(C)c1-c1ccc2nc(N3CCC4(CC3)CC(O)C4)nc(N3CCOC[C@@H]3c3ccccc3)c2c1 [Example 313, (S)-7-(6-(3,5-dimethylisoxazol-4-yl)-4-(3-phenylmorpholino)quinazolin-2-yl)-7-azaspiro 13.51 nonan-2-ol]
Kd: < 0.5 µM

Cc1noc(C)c1-c1ccc2nc(N3CCC4(CCC(=O)N4)CC3)nc(N3CCOC[C@@H]3c3ccccc3)c2c1 [Example 314, (S)-8-(6-(3,5-dimethylisoxazol-4-yl)-4-(3-phenylmorpholino)quinazolin-2-yl)-1,8-diazaspiro[4.5]decan-2-one]
Kd: < 0.5 µM

Cc1noc(C)c1-c1ccc2nc(C(=O)NC3CS(=O)(=O)C3)nc(N3CCOC[C@@H]3c3ccccc3)c2c1 [Example 315, (S)-6-(3,5-dimethylisoxazol-4-yl)-N-(1,1-dioxidothietan-3-yl)-4-(3-phenylmorpholino)quinazoline-2-carboxamide]
Kd: < 0.5 µM

Cc1noc(C)c1-c1ccc2nc(C(=O)N3CCC4(CC3)CC(O)C4)nc(N3CCOC[C@@H]3c3ccccc3)c2c1 [Example 316, (S)-(6-(3,5-dimethylisoxazol-4-yl)-4-(3-phenylmorpholino)quinazolin-2-yl)(2-hydroxy-7-azaspiro[3.5]nonan-7-yl)methanone]
Kd: 0.5 to 5 µM

Cc1noc(C)c1-c1ccc2nc(C(=O)N3CCc4cnn(C)c4C3)nc(N3CCOC[C@@H]3c3ccccc3)c2c1 [Example 317, (S)-(6-(3,5-dimethylisoxazol-4-yl)-4-(3-phenylmorpholino)quinazolin-2-yl)(1-methyl-1,4,5,7-tetrahydro-6H-pyrazolo[3,4-c]pyridin-6-yl)methanone]
Kd: 0.5 to 5 µM

Cc1noc(C)c1-c1ccc2nc(N3CCc4cnn(C)c4C3)nc(N3CCOC[C@@H]3c3ccccc3)c2c1 [Example 318, (S)-4-(6-(3,5-dimethylisoxazol-4-yl)-2-(1-methyl-1,4,5,7-tetrahydro-6H-pyrazolo[3,4-c]pyridin-6-yl)quinazolin-4-yl)-3-phenylmorpholine]
Kd: < 0.5 µM

Cc1noc(C)c1-c1ccc2nc(-c3cnn(C4CCNCC4)c3)nc(N3CCOC[C@@H]3c3ccccc3)c2c1 [Example 319, (S)-4-(6-(3,5-dimethylisoxazol-4-yl)-2-(1-(piperidin-4-yl)-1H-pyrazol-4-yl)quinazolin-4-yl)-3-phenylmorpholine]
Kd: < 0.5 µM

Cc1noc(C)c1-c1ccc2nc(N3CCC4(CCN(C)C4=O)CC3)nc(N3CCOC[C@@H]3c3ccccc3)c2c1 [Example 320, (S)-8-(6-(3,5-dimethylisoxazol-4-yl)-4-(3-phenylmorpholino)quinazolin-2-yl)-2-methyl-2,8-diazaspiro[4.5]decan-1-one]
Kd: < 0.5 µM

Cc1noc(C)c1-c1ccc2nc(-c3ccc(CO)nc3)nc(N3CCOC[C@@H]3c3ccccc3)c2c1 [Example 321, (S)-(5-(6-(3,5-dimethylisoxazol-4-yl)-4-(3-phenylmorpholino)quinazolin-2-yl)pyridin-2-yl)methanol]
Kd: < 0.5 µM

Cc1noc(C)c1-c1ccc2nc(-c3cnn(CC(C)(C)O)c3)nc(N3CCN(C(=O)NC4CC4)C[C@@H]3c3ccccc3)c2c1 [Example 322, (S)—N-cyclopropyl-4-(6-(3,5-dimethylisoxazol-4-yl)-2-(1-(2-hydroxy-2-methylpropyl)-1H-pyrazol-4-yl)quinazolin-4-yl)-3-phenylpiperazine-1-carboxamide]
Kd: < 0.5 µM

Cc1noc(C)c1-c1ccc2nc(-c3ccc(CO)s3)nc(N3CCOC[C@@H]3c3ccccc3)c2c1 [Example 323, (S)-(5-(6-(3,5-dimethylisoxazol-4-yl)-4-(3-phenylmorpholino)quinazolin-2-yl)thiophen-2-yl)methanol]
Kd: 0.5 to 5 µM

CC(=O)N1CC(n2cc(-c3nc(N4CCOC[C@@H]4c4ccccc4)c4cc(-c5c(C)noc5C)ccc4n3)cn2)C1 [Example 324, (S)-1-(3-(4-(6-(3,5-dimethylisoxazol-4-yl)-4-(3-phenylmorpholino)quinazolin-2-yl)-1H-pyrazol-1-yl)azetidin-1-yl)ethan-1-one]
Kd: < 0.5 µM
